Measured values: paper PMC11943725, “Construction of a Plasmid-Free Escherichia coli Strain with Enhanced Heme Supply to Produce Active Hemoglobins” (Metabolites, 2025)

Biological target: T1, human hemoglobin (hHb) (Homo sapiens, UniProt P68871+P69905)
T1 construct: gene HBA1; tetramer
Assay: peroxidase activity of purified protein with TMB Chromogen Solution, OD370
Format: biochemical
Settings: chromogenic peroxidase substrate; holo fraction incomplete

T1 sequence (P69905 2-142): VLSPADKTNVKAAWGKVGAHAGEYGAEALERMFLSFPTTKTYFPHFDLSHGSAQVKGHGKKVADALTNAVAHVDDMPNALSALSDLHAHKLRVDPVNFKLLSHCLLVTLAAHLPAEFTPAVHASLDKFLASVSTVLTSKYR
T1 sequence (P68871 2-147): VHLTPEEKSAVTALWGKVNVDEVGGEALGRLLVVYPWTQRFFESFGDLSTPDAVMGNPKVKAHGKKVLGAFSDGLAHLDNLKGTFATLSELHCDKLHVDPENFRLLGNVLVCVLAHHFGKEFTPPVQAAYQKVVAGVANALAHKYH

Cc1cc(-c2cc(C)c(N)c(C)c2)cc(C)c1N [TMB]
peroxidase activity of purified protein with TMB Chromogen Solution, OD370: The peroxidase activities of purified proteins were detected using TMB Chromogen Solution
